This is an account of results in PubChem BioAssay (NCI).

Some test systems named below: CAKI-1 renal; COLO 205 colon; HT29 colon; K-562 leukemia; NCI-H23 lung; OVCAR-3 ovarian; RXF 393 renal; SNB-19 CNS; UACC-62 melanoma; LOX IMVI melanoma; SK-MEL-2 melanoma.
Holding throughout (experiment): NCI tumour cell line growth inhibition, 48 h

Values joined by “and” are separate entries in the source; they are usually repeats but may differ in a detail not shown here. Identical values can stand only once.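 Five compound concentrations were applied to cells in 96-well plates for 48 hours; endpoints were derived by simple linear interpolation of the resulting dose-response curve. The concentration for 50% growth inhibition is given as GI50. TGI: concentration producing complete growth inhibition.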

For the compound `CCn1c(=O)c2c3ccc(O)cc3[nH]c2c2ccc(O)cc21`, the TGI in the experiment on CAKI-1 renal, in the experiment with COLO 205 colon, with HT29 colon, in the experiment on K-562 leukemia, in the experiment on NCI-H23 lung and in the experiment with OVCAR-3 ovarian was > 100 µM throughout. Further, the TGI in the experiment with RXF 393 renal, with SNB-19 CNS and in the experiment on UACC-62 melanoma was > 100 µM each time.
Take `O=C(N/N=C/c1cc(Cl)cc(Cl)c1[O-])c1ccccc1O.O=C(N/N=C/c1cc(Cl)cc(Cl)c1[O-])c1ccccc1O.[Fe+2]`: the TGI in the experiment with CAKI-1 renal is 69.2 µM; in the experiment with K-562 leukemia, > 100 µM; with LOX IMVI melanoma, 86.5 µM; with NCI-H23 lung it was 31.6 µM; in the experiment on OVCAR-3 ovarian, 38.5 µM; in the experiment with RXF 393 renal it was 28.8 µM. In addition, the TGI in the experiment with SK-MEL-2 melanoma came out at 35.5 µM; in the experiment on SNB-19 CNS it was 46.2 µM; in the experiment on UACC-62 melanoma, 52.4 µM. Moreover, the GI50 with NCI-H23 lung is 6 µM; in the experiment on SK-MEL-2 melanoma, 14.9 µM.
As to `O=c1[nH]c(Br)nc2n[nH]nc12`, the TGI with CAKI-1 renal, in the experiment on COLO 205 colon, in the experiment with HT29 colon, with K-562 leukemia, in the experiment on LOX IMVI melanoma and in the experiment with NCI-H23 lung was > 100 µM throughout. Besides, the TGI in the experiment on OVCAR-3 ovarian, in the experiment on RXF 393 renal, with SK-MEL-2 melanoma, with SNB-19 CNS and with UACC-62 melanoma was > 100 µM throughout.
Regarding `CC(=O)OC1(C)CC(C)C(=O)C(C(O)CC2CC(=O)NC(=O)C2)C1` (stereo unspecified), the TGI in the experiment on COLO 205 colon was 0.18 µM and 0.0404 µM; in the experiment with HT29 colon, 0.133 µM; in the experiment on K-562 leukemia, 0.0322 µM; in the experiment on LOX IMVI melanoma, 0.296 µM and 0.103 µM; in the experiment with OVCAR-3 ovarian, 1.62 µM; in the experiment on RXF 393 renal it was 0.0899 µM. Besides, the TGI was 0.806 µM and 0.438 µM in the experiment with SK-MEL-2 melanoma; 0.598 µM in the experiment with SNB-19 CNS; 0.0113 µM in the experiment with UACC-62 melanoma.
As for `O=[N+]([O-])c1cc(C(F)(F)F)cc2c1SC1=Nc3ccccc3CN12`, the TGI with CAKI-1 renal, in the experiment with COLO 205 colon, in the experiment with HT29 colon, in the experiment with K-562 leukemia, in the experiment on LOX IMVI melanoma and with NCI-H23 lung was > 100 µM throughout. Besides, the TGI with OVCAR-3 ovarian, in the experiment with RXF 393 renal, in the experiment on SK-MEL-2 melanoma, in the experiment on SNB-19 CNS and with UACC-62 melanoma was > 100 µM each time.
For `C[N+]1(C)C/C(=C\C=C\c2ccccc2)C(=O)/C(=C/C=C/c2ccccc2)C1`, the TGI with CAKI-1 renal was > 82.3 µM; with COLO 205 colon, 11.8 µM; with HT29 colon, 26.6 µM; with K-562 leukemia it was 36 µM; with LOX IMVI melanoma it was 52.1 µM; with NCI-H23 lung, 34.4 µM. For the same compound, the TGI was 42.6 µM with OVCAR-3 ovarian; > 61.1 µM in the experiment with RXF 393 renal; 64.2 µM in the experiment with SK-MEL-2 melanoma; 27.5 µM in the experiment with SNB-19 CNS; 14.2 µM in the experiment with UACC-62 melanoma.
For the compound `CC(=O)C(C(=O)C(=O)Nc1cc(Cl)c(Cl)cc1Cl)c1csc(N)n1` (stereo unspecified), the TGI with CAKI-1 renal, in the experiment with COLO 205 colon, with HT29 colon, with K-562 leukemia, with LOX IMVI melanoma and in the experiment on NCI-H23 lung was > 100 µM in each case. In addition, the TGI with RXF 393 renal, in the experiment with SK-MEL-2 melanoma, in the experiment with SNB-19 CNS and in the experiment on UACC-62 melanoma was > 100 µM each time.
`NCCNc1ccc(NCCN)c2c1C(=O)c1c(O)ccc(O)c1C2=O`: the TGI is 0.879 µM and 0.123 µM with CAKI-1 renal; 2.36 µM and 1.19 µM in the experiment with COLO 205 colon; 1.34 µM and 1.23 µM in the experiment with HT29 colon; 0.14 µM with K-562 leukemia; 0.252 µM and 0.214 µM in the experiment on LOX IMVI melanoma; 0.0442 µM and 0.0835 µM in the experiment on NCI-H23 lung. Besides, the TGI in the experiment on OVCAR-3 ovarian is 2.18 µM and 1.66 µM; in the experiment with RXF 393 renal, 0.387 µM and 0.679 µM; with SK-MEL-2 melanoma it was 1.31 µM and 1.33 µM; with SNB-19 CNS it was 1.14 µM and 0.254 µM; in the experiment with UACC-62 melanoma, 0.89 µM and 0.313 µM. In addition, the GI50 in the experiment with COLO 205 colon was 0.157 µM; with HT29 colon, 0.0922 µM; with LOX IMVI melanoma, 0.031 µM; in the experiment on NCI-H23 lung, < 0.0144 µM; with OVCAR-3 ovarian, 0.385 µM; in the experiment on RXF 393 renal, 0.179 µM. The GI50 is 0.345 µM in the experiment with SK-MEL-2 melanoma, 0.0145 µM in the experiment on SNB-19 CNS and 0.0228 µM with UACC-62 melanoma.
As for `NCCCC(N)(C(=O)O)C(F)F` (stereo unspecified), the TGI in the experiment with CAKI-1 renal, with COLO 205 colon, in the experiment with HT29 colon, in the experiment with K-562 leukemia, in the experiment on LOX IMVI melanoma and with NCI-H23 lung was > 5000 µM throughout. Moreover, the TGI in the experiment on OVCAR-3 ovarian, with RXF 393 renal, with SK-MEL-2 melanoma, in the experiment on SNB-19 CNS and in the experiment on UACC-62 melanoma was > 5000 µM throughout.
In the case of `O=C(N/N=C/c1cc(Cl)cc(Cl)c1[O-])c1ccccc1O.O=C(N/N=C/c1cc(Cl)cc(Cl)c1[O-])c1ccccc1O.[Cu+2]`, the TGI was found to be 1.13 µM in the experiment on CAKI-1 renal; 0.348 µM with COLO 205 colon; 2.06 µM in the experiment with HT29 colon; 0.545 µM in the experiment on K-562 leukemia; 1.46 µM with LOX IMVI melanoma; 1.66 µM in the experiment with NCI-H23 lung. The TGI in the experiment with OVCAR-3 ovarian worked out at 0.778 µM; in the experiment with RXF 393 renal, 0.766 µM; in the experiment with SK-MEL-2 melanoma, 2.1 µM; in the experiment with SNB-19 CNS, 2.05 µM; in the experiment on UACC-62 melanoma, 0.819 µM. Also, the results for the GI50 in the experiment with COLO 205 colon, in the experiment on NCI-H23 lung and in the experiment with SK-MEL-2 melanoma were 0.186 µM, 0.436 µM and 0.746 µM, respectively.
`NC1C2C=CC(C2)C1C(=O)O` (stereo unspecified): the TGI with CAKI-1 renal, in the experiment on COLO 205 colon, with HT29 colon, in the experiment with K-562 leukemia, with LOX IMVI melanoma and in the experiment with NCI-H23 lung was > 100 µM each time. The TGI in the experiment with OVCAR-3 ovarian, in the experiment on RXF 393 renal, in the experiment with SK-MEL-2 melanoma, in the experiment with SNB-19 CNS and in the experiment on UACC-62 melanoma was > 100 µM throughout.
For `COc1cc2c(cc1OC)-c1cc3cc(OC)c(OC)cc3c(C)[n+]1CC2` (tested in a mixture with another compound), the TGI in the experiment on CAKI-1 renal, in the experiment on COLO 205 colon, in the experiment on HT29 colon, in the experiment on LOX IMVI melanoma, with NCI-H23 lung and with OVCAR-3 ovarian was > 100 µM each time. Besides, the TGI is > 100 µM in the experiment on RXF 393 renal, > 100 µM with SK-MEL-2 melanoma, > 100 µM in the experiment with SNB-19 CNS and 95.5 µM in the experiment with UACC-62 melanoma.
With `CCN(CC)CCCNC(=O)c1ccccc1Nc1c(Cl)cccc1Cl`, the TGI with COLO 205 colon came to 28 µM; in the experiment with HT29 colon, 16.5 µM; with K-562 leukemia, 23 µM; in the experiment on LOX IMVI melanoma it was 22.3 µM; with NCI-H23 lung, 30.9 µM; with RXF 393 renal, 23 µM. Also, the figures for the TGI in the experiment on SNB-19 CNS and in the experiment on UACC-62 melanoma were 29.1 µM and 25.3 µM, respectively.
In the case of `Oc1ccccc1CNCc1ccccc1O`, the TGI in the experiment on CAKI-1 renal, in the experiment with COLO 205 colon, in the experiment on HT29 colon, with K-562 leukemia, in the experiment with LOX IMVI melanoma and with NCI-H23 lung was > 100 µM throughout. Further, the TGI in the experiment with OVCAR-3 ovarian, with RXF 393 renal, with SK-MEL-2 melanoma, with SNB-19 CNS and in the experiment with UACC-62 melanoma was > 100 µM in each case.
On to `Nc1n[nH]c(N)n1`, for which the TGI in the experiment on CAKI-1 renal is 8860 µM; in the experiment with COLO 205 colon it was 9990 µM; in the experiment on HT29 colon, > 10000 µM; in the experiment with K-562 leukemia, > 10000 µM; with LOX IMVI melanoma, 7400 µM; in the experiment with NCI-H23 lung it was > 9700 µM. Also, the TGI was > 10000 µM with OVCAR-3 ovarian; > 10000 µM in the experiment on RXF 393 renal; > 10000 µM in the experiment on SK-MEL-2 melanoma; > 10000 µM with SNB-19 CNS; 7470 µM with UACC-62 melanoma.
Turning to `O=C(N/N=C/c1cc(Cl)cc(Cl)c1[OH2+])c1ccncc1.O=S(=O)([O-])[O-].[Fe+2]`, the TGI in the experiment on COLO 205 colon worked out at 40.5 µM; in the experiment on HT29 colon, 28.6 µM; with K-562 leukemia it was 51.4 µM; with LOX IMVI melanoma, 0.332 µM; with NCI-H23 lung, 51.3 µM; in the experiment on OVCAR-3 ovarian, 53.8 µM. For the same compound, the TGI is 82.1 µM with RXF 393 renal, 94.9 µM with SK-MEL-2 melanoma, > 100 µM in the experiment on SNB-19 CNS and 41 µM in the experiment with UACC-62 melanoma. Also, the GI50 with SK-MEL-2 melanoma was 82.9 µM.
As to `COc1cccc2c1C(=O)c1c(O)c3c(c(O)c1C2=O)CC(O)(C(C)=O)CC3OC1OC(COC(C)=O)C(OC(C)=O)C(OC(C)=O)C1OC(C)=O` (stereo unspecified), the TGI in the experiment on COLO 205 colon is > 100 µM; in the experiment on HT29 colon, > 100 µM; in the experiment on K-562 leukemia, > 100 µM; with LOX IMVI melanoma it was > 100 µM; in the experiment with OVCAR-3 ovarian, 31.2 µM; in the experiment with RXF 393 renal it was 7.25 µM. Also, the figures for the TGI with SK-MEL-2 melanoma, in the experiment on SNB-19 CNS and in the experiment with UACC-62 melanoma were > 100 µM, 42.1 µM and > 100 µM, respectively.
On to `CCCCCC1CC(C(C)=O)CN1c1ccc(F)cc1` (stereo unspecified), for which the TGI with COLO 205 colon was > 100 µM; in the experiment with HT29 colon it was > 100 µM; with LOX IMVI melanoma it was > 100 µM; in the experiment with NCI-H23 lung it was 63.8 µM; with OVCAR-3 ovarian it was 90.1 µM; with RXF 393 renal it was > 100 µM. The TGI with SK-MEL-2 melanoma was > 100 µM; with SNB-19 CNS, > 10 µM.
